Experimental data taken from patent US12139488B2, “Pyrido[3,2-d]pyrimidine compounds uses thereof for treating a proliferative disease” (Universite de Montreal, priority 2021, dated 2024).
Like-named read-outs stand apart in the source and are kept apart here.

Tests used:
[1] = biological target: BRAF (Homo sapiens (Human), UniProt P15056); assay: BRAF kinase activity assay (ADP-Glo); format: biochemical; details: read-out: Kinase IC50 (nM) BRAF
Protocol: (§1) Compound preparation: solid samples of each substances in 1 dram vials were suspended in DMSO (Fisher Scientific) at a stock concentration of 20 mM. Stocks were kept at −20° C. and protected from light.
(§2) In vitro enzymatic reactions were used for evaluating compounds intrinsic activity against BRAF, CRAF and ARAF. […] Separate reactions were performed with the MEK1 substrate and ATP as a blank control.
(§3) For compound treatment, 5 μL/well of test substance solution are placed in a 384-well proxyplate (Perkin Elmer) and mixed with 2× concentrated kinase reactions. The dilution series is selected so that nine concentrations cover a range from 100 nM to 0.01 nM. […] The final concentration of DMSO in the assay is set at 0.05%.
(§4) BRAF and CRAF kinase reactions were carried out for a total of 2 hours at 30° C. and then stopped by ½ dilution in ADP-Glo Reagent (cat #V9102; Promega; part V912C). Reactions were then incubated for 1h at room temperature before addition of one volume of Kinase Detection Reagent (cat #V9102; Promega; part V917A). Plates were then equilibrated at room temperature for 30 minutes before detection of luminescence on a Synergy Neo2 plate reader (Biotek). The effect of each compound dilution on BRAF and CRAF kinase activity was expressed as % inhibition and calculated as follows.
(§5) IC50 values were obtained by plotting the kinase inhibition values and fitting the dose-activity curves using a log(agonist) versus response-variable slope (four parameters) function using either GraphPadPrism (V7.0) or Dotmatics Screening Ultra platform.

[2] = test system: pERK in HCT-116 cells (KRAS G13D); assay: Phospho-ERK inhibition (AlphaLISA SureFire Ultra p-ERK 1/2), HCT116; format: cell-based, human; details: HCT116 cells; for HCT116 pERK Ymin %: Ymin in brackets
Method in brief: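 p-ERK1/2 (Thr202/Tyr204) in lysates measured by AlphaLISA after 1 h compound exposure of overnight-plated cells (RPMI-1640, 5% FBS, 0.5% DMSO, ten concentrations, usually from 10 μM). Background from a trametinib control subtracted, inhibition normalised to vehicle, and IC50 fitted with a variable-slope four-parameter model.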

[3] = biological target: CRAF (Homo sapiens, UniProt P04049); assay: CRAF kinase activity assay (ADP-Glo); format: biochemical
Protocol: as §1, §2, §3, §4, §5

[4] = test system: pERK in SW480 cells (KRAS G12D); assay: Phospho-ERK inhibition (AlphaLISA), SW480; format: cell-based, human; details: SW480 cells; for SW480 pERK Ymin %: Ymin in brackets; for IC50: class symbol before the bracket
Protocol: All cancer cell lines (A375, A101D, A2058, RKO, HT29 SK-MEL 30, IPC298, HepG2, HCT-116, Lovo, SWV620, SW480, NCI-H358, NCI-H2122, Calu-6, NCIH2087, NCIH1755, NCIH1666 and Mewo) were obtained from ATCC and cultured in RPMI-1640 medium (Gibco) supplemented with 5% heat inactivated fetal bovine serum (FBS, Wisent) at 37° C. under 5% CO2. Cells were maintained in T175 flasks (Greiner). They were passaged by removing the culture medium, washing once in 10 mL of room temperature Phosphate Buffered Saline (PBS; Wisent) and incubating at 37° C. with 2 mL of 0.05% Trypsin (Thermo-Fisher). Trypsin was then inactivated by adding complete growth medium and the cells were then replated in a T175 culture dish at the appropriate dilution. All cell lines were routinely tested for mycoplasma contamination. Tissue type and mutational status of each cell line can be found in Table B.
AlphaLISA® SureFire® Ultra™ p-ERK 1/2 (Thr202/Tyr204) analysis was conducted on cells plated in 100 μL of complete RPMI-1640 growth medium in 96-well flat-bottomed transparent dishes (Costar) at a density indicated in Table C. Cells were maintained overnight at 37° C. under 5% CO2 before treatment with compounds' dilution series for one hour. The cell density in cells/cm^2 corresponds to cell number divided by the area of one well of a 96-well plate ([…]).
In a dilution series 100 μL/well of test substance dilution prepared in complete RPMI-1640 growth media was added to the cells. The dilution series is selected so that ten concentrations cover a range from 10 μM to 0.33 nM. If necessary the initial concentration of 10 μM is increased to 100 μM or lowered to 1 μM (as in the case of A375 and H1666 cells, which are generally more sensitive to the compounds) and further dilution is carried out accordingly. The final concentration of DMSO in the assay is set at 0.5%.
After treatment, media was removed and cells were lysed in 50 μL of 1× AlphaScreen Ultra Lysis Buffer (Perkin Elmer). The AlphaLISA® SureFire® Ultra™ p-ERK 1/2 (Thr202/Tyr2O4) (PerkinElmer) reactions were performed with 5 μL of cell lysate according to the manufacturer's specifications in 384-well proxyplates (Perkin Elmer) followed by overnight incubation of the reactions at room temperature in a humidified chamber. After completion of the reactions, the signals were recorded on an EnVision plate reader (Perkin Elmer) using built in AlphaLISA® settings.
The effect of each compound dilution on the pERK signal was expressed in % inhibition and calculated as follows. An internal 100% inhibition control ([…] trametinib, cat #HY-10999; MedChem Express; CAS #871700-17-3) was included in each plate and used as a measure of pERK background. First, the value obtained for trametinib was subtracted from each data point. The average of DMSO (vehicle) controls (set as 0% inhibition) was established and used to calculate % inhibition: % inhibition=100*(1-((pERK signalcompound)/(pERK signalDMSO)))
The ability of each compound to inhibit pERK signal was expressed as an IC50 value obtained by plotting the inhibition values for each data point of a dilution series and fitting the obtained curves using a log(agonist) versus response-variable slope (four parameters) function using GraphPadPrism (V7.0) or Dotmatics Screening Ultra platform.
When present, paradoxical pERK induction is inferred from the negative % inhibition values observed in the pERK IC50 curves of a compound.

[5] = class symbol before the bracket
[6] = read-out: Kinase IC50 (nM) CRAF

Sequence of CRAF (P04049 whole entry, looked up): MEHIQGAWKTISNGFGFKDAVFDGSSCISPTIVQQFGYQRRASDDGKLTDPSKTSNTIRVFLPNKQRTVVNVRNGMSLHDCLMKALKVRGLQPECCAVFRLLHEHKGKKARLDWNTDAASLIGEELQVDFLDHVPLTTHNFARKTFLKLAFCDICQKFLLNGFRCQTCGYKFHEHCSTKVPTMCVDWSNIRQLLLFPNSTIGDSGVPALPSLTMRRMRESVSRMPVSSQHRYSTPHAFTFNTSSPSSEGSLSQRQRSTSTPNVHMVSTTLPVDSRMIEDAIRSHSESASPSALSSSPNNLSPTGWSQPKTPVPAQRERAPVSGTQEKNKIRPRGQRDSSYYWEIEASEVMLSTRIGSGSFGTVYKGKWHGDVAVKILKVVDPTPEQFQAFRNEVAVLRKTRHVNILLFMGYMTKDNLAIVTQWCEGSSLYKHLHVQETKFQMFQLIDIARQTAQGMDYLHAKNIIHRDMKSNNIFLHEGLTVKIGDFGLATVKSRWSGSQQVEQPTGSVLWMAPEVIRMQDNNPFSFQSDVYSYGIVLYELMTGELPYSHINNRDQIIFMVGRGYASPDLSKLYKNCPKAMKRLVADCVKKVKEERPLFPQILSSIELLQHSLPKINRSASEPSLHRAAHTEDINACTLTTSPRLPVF
Sequence of BRAF (P15056 whole entry): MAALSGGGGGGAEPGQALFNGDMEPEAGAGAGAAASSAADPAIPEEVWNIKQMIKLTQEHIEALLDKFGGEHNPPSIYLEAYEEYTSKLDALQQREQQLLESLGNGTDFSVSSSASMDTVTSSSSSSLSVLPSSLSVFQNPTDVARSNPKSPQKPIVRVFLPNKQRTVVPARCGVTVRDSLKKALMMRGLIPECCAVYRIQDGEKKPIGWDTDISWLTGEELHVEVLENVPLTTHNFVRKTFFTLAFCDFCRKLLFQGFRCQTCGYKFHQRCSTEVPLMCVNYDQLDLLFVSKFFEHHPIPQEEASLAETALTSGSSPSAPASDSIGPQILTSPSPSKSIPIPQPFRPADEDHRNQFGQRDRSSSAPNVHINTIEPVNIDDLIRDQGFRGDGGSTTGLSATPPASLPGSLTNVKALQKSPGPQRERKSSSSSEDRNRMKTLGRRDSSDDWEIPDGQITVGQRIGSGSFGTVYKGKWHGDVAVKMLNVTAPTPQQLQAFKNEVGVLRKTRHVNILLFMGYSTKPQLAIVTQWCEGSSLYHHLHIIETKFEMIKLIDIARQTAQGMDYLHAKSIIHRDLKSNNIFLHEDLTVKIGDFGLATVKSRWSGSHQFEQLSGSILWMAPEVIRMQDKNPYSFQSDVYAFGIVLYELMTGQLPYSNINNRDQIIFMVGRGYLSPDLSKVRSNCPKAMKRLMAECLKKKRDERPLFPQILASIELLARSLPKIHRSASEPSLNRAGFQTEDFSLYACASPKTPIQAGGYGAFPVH

SMILES | IC50 [1] | IC50 [2, 5] | IC50 [3, 6] | IC50 [4] | IC50 [2] | HCT116 pERK % Ymin (lowest value of the IC50 curve) ([2]; Ymin above −20% = minimal or no paradoxical activation) | IC50 ([3]; CRAF, read-out: Kinase IC50 (nM), CRAF biochemical kinase assay) | HCT116 pERK Ymin % [2] | SW480 pERK Ymin % [4]
CN(C)Cc1cccc2c1ncn2-c1ccc2ncnc(Nc3c(F)ccc(NS(=O)(=O)c4ccccc4Cl)c3F)c2n1 [Ex 216] | 1 to 10 nM | 0.5 to 1 µM | 10 to 50 nM | – | – | – | – | −8.8% | –
CC(C)NCc1cccc2c1ncn2-c1ccc2ncnc(Nc3c(F)ccc(NS(=O)(=O)c4ccccc4Cl)c3F)c2n1 [Ex 222] | 1 to 10 nM | 1 to 10 µM | 10 to 50 nM | – | – | – | – | −11% | –
COC1CN(Cc2cccc3c2ncn3-c2ccc3ncnc(Nc4c(F)ccc(NS(=O)(=O)c5ccccc5Cl)c4F)c3n2)C1 [Ex 226] | 1 to 10 nM | 1 to 10 µM | > 50 nM | – | – | – | – | −9% | –
COc1ccc(S(=O)(=O)Nc2ccc(F)c(Nc3ncnc4ccc(-n5cnc6c([N+](=O)[O-])cccc65)nc34)c2F)c(C)c1 [Example 70] | – | 1 to 10 µM | – | 1 to 10 µM | – | – | – | −3% | 5%
COc1ccc(S(=O)(=O)Nc2ccc(F)c(Nc3ncnc4ccc(-c5ccc(OC)nc5)nc34)c2F)c(C)c1 [Example 71] | – | 1 to 10 µM | – | 1 to 10 µM | – | – | – | −4% | 8%
NC(=O)c1cccc(-c2ccc3ncnc(Nc4c(F)ccc(NS(=O)(=O)c5ccccc5Cl)c4F)c3n2)c1 [Example 80] | – | 1 to 10 µM | – | 1 to 10 µM | – | – | – | 11% | 10%
NC(=O)c1ccc(-c2ccc3ncnc(Nc4c(F)ccc(NS(=O)(=O)c5ccccc5Cl)c4F)c3n2)cc1 [Example 81] | – | 1 to 10 µM | – | 1 to 10 µM | – | – | – | −4% | 15%
Nc1nc(-c2ccc3ncnc(Nc4c(F)ccc(NS(=O)(=O)c5ccccc5Cl)c4F)c3n2)cs1 [Example 94] | > 10 nM | 1 to 10 µM | > 50 nM | – | – | – | – | −5% | –
Cc1c(Cl)cccc1S(=O)(=O)Nc1ccc(F)c(Nc2ncnc3ccc(-n4cnc5c(O)cccc54)nc23)c1F [Example 116] | < 1 nM | 0.5 to 1 µM | < 10 nM | – | – | – | – | −18% | –
Cc1c(Cl)cccc1S(=O)(=O)Nc1ccc(F)c(Nc2ncnc3ccc(-n4nnc5c(O)cccc54)nc23)c1F [Example 117] | 1 to 10 nM | 0.5 to 1 µM | < 10 nM | – | – | – | – | −12% | –
O=C(Nc1cccc2c1ncn2-c1ccc2ncnc(Nc3c(F)ccc(NS(=O)(=O)c4ccccc4Cl)c3F)c2n1)N1CCOCC1 [Example 149] | 1 to 10 nM | 0.5 to 1 µM | 10 to 50 nM | – | – | – | – | 8.5% | –
O=S1(=O)CCN(c2cccc3c2ncn3-c2ccc3ncnc(Nc4c(F)ccc(NS(=O)(=O)c5cccc(Cl)c5Cl)c4F)c3n2)CC1 [Example 628] | – | – | – | – | 0.5 to 1 µM | 0% | < 10 nM | – | –

The next lines start with results.

IC50 [1] | IC50 [2, 5] | IC50 [3, 6] | IC50 [4] | IC50 [2] | HCT116 pERK % Ymin (lowest value of the IC50 curve) ([2]; Ymin above −20% = minimal or no paradoxical activation) | IC50 ([3]; CRAF, read-out: Kinase IC50 (nM), CRAF biochemical kinase assay) | SMILES | HCT116 pERK Ymin % [2] | SW480 pERK Ymin % [4]
1 to 10 nM | 1 to 10 µM | 10 to 50 nM | – | – | – | – | CNC(=O)c1cn(-c2ccc3ncnc(Nc4c(F)ccc(NS(=O)(=O)c5ccccc5Cl)c4F)c3n2)c2ccccc12 [Ex 86] | −10% | –
< 1 nM | < 0.5 µM | 10 to 50 nM | – | – | – | – | CN(C)C(=O)c1cn(-c2ccc3ncnc(Nc4c(F)ccc(NS(=O)(=O)c5ccccc5Cl)c4F)c3n2)c2ccccc12 [Ex 87] | −4.4% | –
1 to 10 nM | 1 to 10 µM | < 10 nM | – | – | – | – | NC(=O)Cc1cn(-c2ccc3ncnc(Nc4c(F)ccc(NS(=O)(=O)c5ccccc5Cl)c4F)c3n2)c2ccccc12 [Ex 90] | −1% | –
1 to 10 nM | 1 to 10 µM | > 50 nM | – | – | – | – | CC(=O)c1cn(-c2ccc3ncnc(Nc4c(F)ccc(NS(=O)(=O)c5ccccc5Cl)c4F)c3n2)c2ccccc12 [Ex 214] | −12% | –
1 to 10 nM | 1 to 10 µM | 10 to 50 nM | – | – | – | – | CNCc1cccc2c1ncn2-c1ccc2ncnc(Nc3c(F)ccc(NS(=O)(=O)c4ccccc4Cl)c3F)c2n1 [Ex 215] | −9% | –
< 1 nM | 1 to 10 µM | < 10 nM | – | – | – | – | NCc1cccc2c1ncn2-c1ccc2ncnc(Nc3c(F)ccc(NS(=O)(=O)c4ccccc4Cl)c3F)c2n1 [Ex 217] | −9% | –
1 to 10 nM | 1 to 10 µM | 10 to 50 nM | – | – | – | – | O=S(=O)(Nc1ccc(F)c(Nc2ncnc3ccc(-n4cnc5c(CN6CCCC6)cccc54)nc23)c1F)c1ccccc1Cl [Ex 219] | 0% | –
1 to 10 nM | 1 to 10 µM | 10 to 50 nM | – | – | – | – | O=S(=O)(Nc1ccc(F)c(Nc2ncnc3ccc(-n4cnc5c(CN6CC(O)C6)cccc54)nc23)c1F)c1ccccc1Cl [Ex 225] | −8% | –
< 1 nM | 1 to 10 µM | 10 to 50 nM | – | – | – | – | O=S(=O)(Nc1ccc(F)c(Nc2ncnc3ccc(-n4cnc5c(CN6CCC(O)CC6)cccc54)nc23)c1F)c1ccccc1Cl [Ex 229] | −7% | –
1 to 10 nM | 0.5 to 1 µM | 10 to 50 nM | – | – | – | – | CC(=O)Nc1cccc2c1ncn2-c1ccc2ncnc(Nc3c(F)ccc(NS(=O)(=O)c4ccccc4Cl)c3F)c2n1 [Example 85] | 2.9% | –
– | < 0.5 µM | – | < 0.5 µM | – | – | – | Nc1cccc2c1nnn2-c1ccc2ncnc(Nc3c(F)ccc(NS(=O)(=O)c4ccccc4Cl)c3F)c2n1 [Example 92] | −4.6% | 18%
– | < 0.5 µM | – | < 0.5 µM | – | – | – | O=C(c1cn(-c2ccc3ncnc(Nc4c(F)ccc(NS(=O)(=O)c5ccccc5Cl)c4F)c3n2)c2ccccc12)N1CCOCC1 [Example 109] | −1.7% | −6.4%
– | < 0.5 µM | – | < 0.5 µM | – | – | – | Cc1c(Cl)cccc1S(=O)(=O)Nc1ccc(F)c(Nc2ncnc3ccc(-n4nc(C(=O)N5CCNCC5)c5ccccc54)nc23)c1F [Example 127] | −1.2% | −3.8%
